PMC10447463, “Data-mining unveils structure–property–activity correlation of viral infectivity enhancing self-assembling peptides” (Nature Communications, 2023)
Read-outs that look alike come from different tables or passages of the source.

Experiments:
[1] = test system: HIV-1 infection of TZM-bl cells; experiment: HIV-1 infectivity enhancement assay, β-galactosidase luminescence; type: cell-based; conditions: for Rel-EFC: infection relative to EF-C (QCKIKQIINMWQ = 1); for Log10 Infection Rel EFC: log10 of infection relative to EF-C; for Log Infectivity: Log10 infection relative to EF-C, asymmetric std dev errors; for Log10 Infection Rel EF-C: HIV-1 infection of TZM-bl cells; for Log10 of Rel to EFC (Feb2021): Log10 of infection relative to EF-C, all peptides of FigS16; for Abs. Inf.: β-galactosidase luminescence
[2] = β-sheet content by ATR-FT-IR; type: physicochemical; conditions: for b -sheet / %: Fig. S7 panel A, β-sheet content by ATR-FT-IR
Experimental: For ATR FT–IR spectroscopy measurements, 200 µL of the respective 1 mg/mL PNF solution was lyophilized and the resulting powder used for measurement. All spectra were recorded on a Bruker Tensor 27 spectrometer with a diamond crystal as ATR element (PIKE MiracleTM, spectral resolution 2 cm^-1). Every sample was measured with 64 scans. Data were analyzed with OriginLab software and calculation of β–sheet content was conducted according to a previous report. TEM. For TEM measurements 5 µL of PNF fibrils (1 mg/mL) were placed on copper grids coated with carbon and formvar layer (300 mesh, Plano GmbH). After 10 min incubation time, the grids were staining with 4% uranyl acetate solution for 2.5 min and washed with water. Measurements were performed on a Jeol 1400 electron microscope with 120 kV acceleration voltage. CR Assay. For the determination of the amount of peptide monomer converting into nanostructures the amine reactive dye fluorescamine was used analogous to a previous reported protocol. Briefly, 100 µL of the preformed PNF solution was centrifuged in a Vivaspin 500 tube (3 kDa MWCO) to separate fibers from free peptide monomer (16200 x g, 4 °C, 45 min). The filtrate and 100 μL of the non-filtered PNF sample were lyophilized and dissolved in 30 μL DMSO. 10 μL of the filtrate and non-filtered DMSO samples were submitted in a black UV Star® 384 microliter well–plates (Greiner bio–one) and 3 μL of the fluorescamine solution (10 mg/mL, DMSO) was added to measure the fluorescence enhancement. After 20 min of incubation at RT, fluorescence was recorded on an Infinite® M1000 PRO microplate reader (Tecan) at λem = 470 nm upon excitation at λex = 365 nm with 10 nm bandwidths and multiple reads per well (3×3). Measurements were repeated in triplicates and averaged with standard deviation. All values were calculated as n-fold fluorescence enhancement (DMSO only as a reference was set to 1). The conversion rate CR was defined according to the equation Eq. (3).3 CR=100−100×fluorescenceintensityfiltrate/fluorescenceintensityoriginal[%]

[3] = type: physicochemical; conditions: for ThT Cat. / ThT-Fluorescence (categorical): ThT-active if fluorescence at least twice the control
Method in brief: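 Fibrils (1 mg/mL solution) were mixed with 50 µM ThT in PBS for 15 min at RT, and fluorescence was read at λex 440/λem 488 nm against a PBS blank, as a triplicate mean ± SD. Zeta potential came from electrophoretic mobility (Smoluchowski) after 1 d aggregation at 1 mg/mL in PBS pH 7.4, diluted into 1 mM KCl.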

[4] = Fig. S7 panel A (plotted against β-sheet content), TZM-bl cells
[5] = Fig. S7 panel B (plotted against CR), rounded to two decimals, TZM-bl cells
[6] = Log10 of infection rate relative to EF-C, Figure 3A source data
[7] = infection rate relative to EF-C, log10, data of Figure 2D
[8] = infection rate relative to EF-C, log10, source data of Figure 2C
[9] = ThT fluorescence category, 1 if Rel. ThT >2

| Sequence | Rel-EFC ([1]; 1.3 µM peptide) | Log10 Infection Rel EFC ([1]; 1.3 µM peptide) | Log Infectivity [1, 4] | Log Infectivity [1, 5] | Log10 Infection Rel EF-C [1, 6] | Log10 Infection Rel EF-C [1, 7] | Log10 Infection Rel EF-C [1, 8] | Log10 of Rel to EFC (Feb2021) [1] | b -sheet / % [2] | Tht category (> 2 to blank = +) ([3]; Fig S10 panel D) | ThT Cat. ([3]; Fig S10 panel E) | ThT Cat, ([3]; ThT category, 1 if Rel. ThT >2) | ThT Cat. [3, 9] | ThT Cat. / ThT-Fluorescence (categorical) [3] | Tht category (> 2 to blank = +) ([3]; FigS12 panel A) | ThT Cat, ([3]; FigS12 panel B) | ThT Cat. ([3]; ThT category, 1 if Rel. ThT >2) | also measured |
| --- | --- | --- | --- | --- | --- | --- | --- | --- | --- | --- | --- | --- | --- | --- | --- | --- | --- | --- |
| RGDSGGGGGGKIKIQIC | 0,87 | -0,06 | -0.0628 | -0.06 | -0.06 | -0.0628 | -0.0628 | -0.06 | 40.62% | 1 (ThT. Cat is 1, if Rel. ThT >2) | 1 (ThT. Cat is 1, if Rel. ThT >2) | 1 (ThT. Cat is 1, if Rel. ThT >2) | 1 (ThT. Cat is 1, if Rel. ThT >2) | 1 (ThT. Cat is 1, if Rel. ThT >2) |  |  |  |  |
| RGDCKIKIQINM | 0,24 | -0,63 | -0.6272 |  | -0.63 | -0.6272 | -0.6272 | -0.63 | 43% | 0 (ThT-inactive (N-Fold <2)) |  | 0 (ThT-inactive (N-Fold <2)) | 0 (ThT-inactive (N-Fold <2)) | 0 (ThT-inactive (N-Fold <2)) |  |  |  |  |
| HHHHKAKAKAKAWWWW | 0,09 | -1,05 | -1.048 |  | -1.05 | -1.048 | -1.048 |  | 40.26% | 1 (ThT. Cat is 1, if Rel. ThT >2) |  | 1 (ThT. Cat is 1, if Rel. ThT >2) |  | 1 (ThT. Cat is 1, if Rel. ThT >2) | 1 (ThT. Cat is 1, if Rel. ThT >2) | 1 (ThT. Cat is 1, if Rel. ThT >2) | 1 (ThT. Cat is 1, if Rel. ThT >2) | Abs. Inf. ([1]; absolute HIV-1 infection signal, TZM-bl cells): 3233 |
| KIEIQINM | 0,03 | -1,46 | -1.458 |  | -1.46 | -1.458 | -1.458 |  | 42.99% | 0 (ThT-inactive (N-Fold <2)) |  | 0 (ThT-inactive (N-Fold <2)) | 0 (ThT-inactive (N-Fold <2)) | 0 (ThT-inactive (N-Fold <2)) | 0 (ThT-inactive (N-Fold <2)) | 0 (ThT-inactive (N-Fold <2)) |  |  |
| CKAKAQANM | 0,03 | -1,5 | -1.504 | -1.5 | -1.5 | -1.504 | -1.504 |  | 34.22% | 0 (ThT-inactive (N-Fold <2)) | 0 (ThT-inactive (N-Fold <2)) | 0 (ThT-inactive (N-Fold <2)) |  | 0 (ThT-inactive (N-Fold <2)) | 0 (ThT-inactive (N-Fold <2)) | 0 (ThT-inactive (N-Fold <2)) | 0 (ThT-inactive (N-Fold <2)) | Inf. rel. EF-C ([1]; HIV-1 infection relative to EF-C, Fig 23 plot, panels A and B, mean of 3 values): 0.01839; Inf. rel. EF-C ([1]; HIV-1 infection relative to EF-C, Fig 23 plot, single data point, replicate 1): 0.01398; Inf. rel. EF-C ([1]; HIV-1 infection relative to EF-C, Fig 23 plot, single data point, replicate 2): 0.02152; Inf. rel. EF-C ([1]; HIV-1 infection relative to EF-C, Fig 23 plot, single data point, replicate 3): 0.01966; Abs. Inf. / RLU s-1 ([1]; absolute infection rate, peptide 1.3 µM on cells, virus preincubated 10 min with fibrils, read 3 days post infection, mean of triplicate): 430 RLU s-1; Abs. Inf. ([1]; absolute infection signal, HIV-1 on TZM-bl cells): 430; Log10 Inf. rel. to EF-C ([1]; log10 of HIV-1 infection of TZM-bl cells relative to EF-C (EF-C = 0)): -1.504; Inf. rel. EF-C ([1]; n-fold infection vs virus only, relative to that of EF-C, 1.3 µM peptide): 0.03; ß-sheet / % ([2]; ATR-FT-IR of lyophilised 1 mg/mL PNF solution, peak integral ratio 1625-1635 cm-1, measured once): 34%; Rel. ThT ([3]; n-fold ThT fluorescence vs control (PBS, 10% DMSO), 4 µL 1 mg/mL fibrils + 20 µL 50 µM ThT, 15 min RT, ex 440 / em 488 nm, triplicate): 1.2 |
